Results on 1 compound are retold here after patent US8835421B2, “Benzimidazole linked pyrrolo[2,1-c[1,4] benzodiazepine hybrids as potential antitumour agents and process for the preparation thereof” (Council of Scientific and Industrial Research, priority 2008, dated 2014).

Experiment [1] deals with Leukemia cancer cell lines. In words: NCI in vitro anticancer screen (SRB, 48 h), leukemia. The experiment is classed as cell-based, human. The note with it: Homo sapiens, average of six to nine cell lines, read-out: Log10 GI50 (converted). The method, then: (§1) Anticancer activity: In vitro biological activity studies were carried out at the National Cancer Institute (USA).
(§2) The compounds were evaluated for in vitro anticancer activity against sixty human tumour cells derived from nine cancer types (leukemia, non-small-cell lung, colon, CNS, melanoma, ovarian, prostate, and breast cancer) as shown in Table 3. For each compound, dose response curves for each cell line were measured at a minimum of five concentrations at 10 fold dilutions. A protocol of 48 h continuous drug exposure was used and a sulforhodamine B (SRB) protein assay was used to estimate cell viability or growth. The concentration causing 50% cell growth inhibition (GI50), total cell growth inhibition (TGI 0% growth) and 50% cell death (LC50, −50% growth) compared with the control was calculated. The mean graph midpoint values of log10 TGI and log10 LC50 as well as log10 GI50 for 8c, 8e, 11a, 11c and 14 are listed in Table 2.
(§3) Each cancer type represents the average of six to nine different cancer cell lines.

Another experiment relates to calf thymus DNA (CT-DNA). The experiment is described as follows: Thermal denaturation studies with duplex-form calf thymus DNA. The experiment is classed as binding. The note with it: [PBD]:[DNA] 1:5, CT-DNA 100 μM, ligand 20 μM, sodium phosphate buffer pH 7.00. The protocol: Compounds have been subjected to thermal denaturation studies with duplex-form calf thymus DNA (CT-DNA) using an modification of a reported procedure (Newman, M. S. Carcinog-compr. Surv. 1976, 1, 203; (b) Hecht, S. S.; Loy, M.; Hoffman, Carcinog-compr. Surv. 1976, 1, 325). Working solutions in aqueous buffer (10 mM NaH2PO4/Na2HPO4, 1 mM Na2EDTA, pH 7.00+0.01) containing CT-DNA (100 μm in phosphate) and the PBD (20 μm) have been prepared by addition of concentrated PBD solutions in DMSO to obtain a fixed [PBD]/[DNA] molar ratio of 1:5. The DNA-PBD solutions have been incubated at 37° C. for 0 and 18 h prior to analysis. Samples have been, monitored at 260 nm using a Beckman DU-800 spectrophotometer fitted with high performance temperature controller, and heated at 1° C. min^−1 in the 40-110° C. range. DNA helix→coil transition temperatures (Tm) have been obtained from the maxima in the d(A260)/d T derivative plots. Drug-induced alterations in DNA melting behavior are given by: ΔTm=Tm(DNA+PBD)−Tm(DNA alone), where the Tm value for the PBD-free CT-DNA is 69.1±0.01.
The DNA binding activity for these novel C8-linked benzimidazole-PBD hybrids has been examined by thermal denaturation studies using calf thymus (CT) DNA. […] The data for the compounds 8a-g, 11a-d and 14 is included in Table 1 for comparison.

Experiment [2] has as its system Ovarian cancer cell lines. The experiment is described as follows: NCI in vitro anticancer screen (SRB, 48 h), ovarian. It counts as cell-based, human. The note with it: Homo sapiens, average of six to nine cell lines, read-out: Log10 GI50 (converted). The protocol:
as §1, §2, §3

A further experiment deals with Colon cancer cell lines. In words: NCI in vitro anticancer screen (SRB, 48 h), colon. The experiment is classed as cell-based, human. The following applies: Homo sapiens, average of six to nine cell lines, read-out: Log10 GI50 (converted). The method, then: as §1, §2, §3
A further experiment relates to sixty human tumour cells. In words: NCI in vitro anticancer screen (SRB, 48 h), mean graph midpoints over all cell lines. The experiment is classed as cell-based. The following applies: 48 h continuous drug exposure, SRB assay. The protocol:
as §1, §2

The next experiment has as its system CNS cancer cell lines. In words: NCI in vitro anticancer screen (SRB, 48 h), CNS. The experiment is classed as cell-based, human. The note with it: Homo sapiens, average of six to nine cell lines, read-out: Log10 GI50 (converted). The method, then: as §1, §2, §3
The subject of another experiment is Renal cancer cell lines. In words: NCI in vitro anticancer screen (SRB, 48 h), renal. The note with it: Homo sapiens, average of six to nine cell lines, read-out: Log10 GI50 (converted). The experiment is classed as cell-based, human. The protocol:
as §1, §2, §3

The next experiment concerns Breast cancer cell lines. In words: NCI in vitro anticancer screen (SRB, 48 h), breast. The experiment is classed as cell-based, human. The following applies: Homo sapiens, average of six to nine cell lines, read-out: Log10 GI50 (converted). The method, then:
as §1, §2, §3

Experiment [3] deals with Melanoma cancer cell lines. In words: NCI in vitro anticancer screen (SRB, 48 h), melanoma. The experiment is classed as cell-based, human. The following applies: Homo sapiens, average of six to nine cell lines, read-out: Log10 GI50 (converted). The method, then:
as §1, §2, §3

Experiment [4] has as its system Prostate cancer cell lines. The experiment is described as follows: NCI in vitro anticancer screen (SRB, 48 h), prostate. The experiment is classed as cell-based, human. The following applies: Homo sapiens, average of six to nine cell lines, read-out: Log10 GI50 (converted). The method, then:
as §1, §2, §3

In experiment [5] the test system is Non-small-cell-lung cancer cell lines. In words: NCI in vitro anticancer screen (SRB, 48 h), non-small-cell lung. The note with it: Homo sapiens, average of six to nine cell lines, read-out: Log10 GI50 (converted). It counts as cell-based, human. The protocol: as §1, §2, §3

Turning to `COc1cc2c(cc1OCCCCCn1c(-c3ccco3)nc3ccccc31)N=C[C@@H]1CCCN1C2=O` [Compound 8c, 7-Methoxy-8-{5-[2-(2-furyl)-1H-benzimidazol-1-yl]pentyl}oxy-(11aS)-1,2,3,11a-tetrahydro-5H-pyrrolo[2,1-c][1,4]benzodiazepin-5-one], the GI50 is below 10 nM in [1]; below 10 nM in [2]; below 12 nM with Colon cancer cell lines; below 10 nM with CNS cancer cell lines; below 12 nM in the experiment on Renal cancer cell lines; below 16.2 nM with Breast cancer cell lines. Besides, the results for the GI50 in [3], in experiment [4] and in experiment [5] were below 12 nM, below 22.9 nM and below 12 nM, respectively. In addition, the “ΔTm after incubation at 37° C. for 0 h” value in the experiment with calf thymus DNA (CT-DNA) (0 h incubation at 37° C.) is 5.1 °C. Further, in the experiment with calf thymus DNA (CT-DNA) (18 h incubation at 37° C.), the “ΔTm after incubation at 37° C. for 18 h” value was determined as 7.0 °C. In the experiment on sixty human tumour cells (50% cell death), the “Log10LC50 mean graph midpoint (MG_MID)” value is −4.60. The “Log10GI50 mean graph midpoint (MG_MID)” value in the experiment with sixty human tumour cells (50% cell growth inhibition) is on record as −7.91. Moreover, the “Log10TGI mean graph midpoint (MG_MID)” value in the experiment with sixty human tumour cells (total cell growth inhibition) is given as −6.89.

The GI50 is the concentration that inhibits growth by half.
